In patent US11572369B2, “Bicyclic pyridine compositions and methods of using the same for cancer therapy” (UNIVERSITY OF SOUTH CAROLINA, priority 2019, dated 2023):
Where two headings read alike, the source gives them in different places. One block for each molecule: values may come before it.

What was measured:
Mouse PK, intravenous = format: in vivo; conditions: female FVB mice, i.v. 0.5 mg/kg, mixture; for AUC / C0 / Vd / half-life: mouse, serum, iv
Method: Pharmacokinetics (PK) Assay. To measure mouse pharmacokinetics (PK), thienopyridine derivatives were dissolved in 5% dextrose and administered to female FVB mice at different dosing conditions; blood samples were collected at different time points and compound concentrations in the serum were measured by LC/MS/MS.

Mouse PK, oral 1 mg/kg = format: in vivo; conditions: female, FVB, serum, mice, oral (gavage) 1 mg/kg; for bioavailability: read-out: Bioavailability (F %)
CDK8/19 = assay: NFκB Activity Assay (NFκB luciferase reporter, parental 293 cells); format: cell-based
[1] = test system: alkaline phosphatase (ALPase) in bone marrow stromal cell line ST2; conditions: cited from earlier work; for ALP activity Assay EC200: concentration that enhances ALPase activity to 200% of control, ST2 cells, Saito (2013)
[2] = test system: PSA expression in CRPC cell line C4-2; assay: PSA expression in C4-2 cell culture supernatant; format: cell-based; conditions: C4-2 culture supernatant, 4-day treatment, FBS-supplemented regular media, read-out: IC50, suppression of PSA expression
Text: CDK8/19 inhibition decreases the expression of certain androgen-receptor (AR) inducible genes including PSA, the most common marker of prostate cancer, and the growth of castration-refractory prostate cancers (CRPC).

[3] = Saito, 2013; cited from earlier work
in vivo = conditions: female, CD-1, mouse, serum, po
[4] = test system: NFκB activation in CDK8/19-deficient cells; assay: NFκB reporter assay in CDK8/19 double-knockout 293 reporter cells; conditions: CDK8/19 double-knockout reporter cells
[5] = Oral PK in female CD-1 mice, solution formulation; conditions: oral gavage in solution, 30 mg/kg (15u series) or 16/18 mg/kg (15w series)
[6] = test system: 4T1 murine triple-negative breast cancer; assay: 4T1 TNBC lung metastasis survival after primary tumor removal; format: in vivo, mouse; conditions: medicated food (350 ppm) plus one oral dose 50 mg/kg after removal of primary tumor
MYC-CAP-CR cells [7] = assay: Short-term cell proliferation assay, MYC-CAP-CR; format: cell-based, murine; conditions: androgen-containing media
MV4-11 cells = assay: MV4-11-Luc proliferation assay; conditions: Homo sapiens, MV4-11, read-out: Inhibition Potency MV4-11-Luc Assay
MYC-CAP-CR cells [8] = assay: Long-term clonogenic assay, MYC-CaP-CR; format: cell-based, murine
MYC-CaP-CR tumors = assay: MYC-CaP-CR subcutaneous tumors in intact FVB male mice; format: in vivo, mouse; conditions: intact (uncastrated) FVB male mice
[9] = parental 293-derived reporter cell line, read-out: NFκB activity Assay IC50
[10] = read-out: Inhibition Potency HEK293-NFkB-Luc Assay, read-out: Inhibition Potency HEK238-NFkB-Luc Assay

Compound: NC(=O)c1sc2nccc(N3CCCN(c4ccccc4)CC3)c2c1N [15k]
Elimination rate (Mouse PK, intravenous): 4.59 h⁻¹ | AUC (Mouse PK, intravenous): 40.8 ng·h/mL | C0 (Mouse PK, intravenous): 168 ng/mL | Vd (Mouse PK, intravenous): 2.98 L/kg | half-life (Mouse PK, intravenous): 9 min | AUC (Mouse PK, oral 1 mg/kg): 7.6 ng·h/mL | half-life (Mouse PK, oral 1 mg/kg): 18 min | bioavailability (Mouse PK, oral 1 mg/kg): 9%

Compound: Cc1ccc(N2CCCN(c3ccnc4sc(C(N)=O)c(N)c34)CC2)cc1 [15n]
IC50 (CDK8/19; [9]): 37.8 nM | ALP activity Assay EC200 [1]: 88.1 nM

Compound: COc1ccc(N2CCCN(c3ccnc4sc(C(N)=O)c(N)c34)CC2)cc1 [15q]
IC50 (CDK8/19; [9]): 43.1 nM | ALP activity Assay EC200 [1]: 115.4 nM

Elimination rate (Mouse PK, intravenous): 4.33 h⁻¹ | AUC (Mouse PK, intravenous): 61.2 ng·h/mL | C0 (Mouse PK, intravenous): 234 ng/mL | Vd (Mouse PK, intravenous): 2.14 L/kg | half-life (Mouse PK, intravenous): 9.6 min | AUC (Mouse PK, oral 1 mg/kg): 21.8 ng·h/mL | Cmax (Mouse PK, oral 1 mg/kg): 7.2 ng/mL | half-life (Mouse PK, oral 1 mg/kg): 72 min | bioavailability (Mouse PK, oral 1 mg/kg): 18%
Compound: CNC(=O)c1ccc(N2CCCN(c3ccnc4sc(C(N)=O)c(N)c34)CC2)cc1 [15v]
IC50 (CDK8/19; [10]): 23.1 nM

AUC (Mouse PK, oral 1 mg/kg): 29.2 ng·h/mL | half-life (Mouse PK, oral 1 mg/kg): 18 min | IC50 ([2]; 96 h): 15.7 nM | AUC(0-t) (in vivo; 16 mg/kg): 400 ng·h/mL
Compound: CN(C)C(=O)Cc1ccc(N2CCCN(c3ccnc4sc(C(N)=O)c(N)c34)CC2)cc1 [15w, 3-amino-4-(4-(4-(2-(dimethylamino)-2-oxoethyl)phenyl)-1,4-diazepan-1-yl)thieno[2,3-b]pyridine-2-carboxamide]
IC50 (CDK8/19; [10]): 4.1 nM | bone anabolic activity in a cell-based assay ([1]; Saito, 2013): highest bone anabolic activity | ALP activity Assay EC200 [1]: 6.6 nM | pharmacokinetics [3]: poor pharmacokinetics (PK) with low Cmax | effect on NFκB activation in CDK8/19-deficient cells [4]: no effect

AUC(0-t) (in vivo; 18 mg/kg): 380 ng·h/mL | PK (AUC 0-8 h) versus undeuterated parent [5]: did not improve the PK
Compound: [2H]C([2H])(C(=O)N(C)C)c1ccc(N2CCCN(c3ccnc4sc(C(N)=O)c(N)c34)CC2)cc1 [15w_D2, 3-amino-4-(4-(4-(2-(dimethylamino)-2-oxoethyl-1,1-d2)phenyl)-1,4-diazepan-1-yl)thieno[2,3-b]pyridine-2-carboxamide]
IC50 (CDK8/19; [10]): 8.8 nM

AUC(0-t) (in vivo; 16 mg/kg): 770 ng·h/mL | PK (AUC 0-8 h) versus undeuterated parent [5]: much improved the PK
Compound: [2H]C([2H])([2H])N(C(=O)Cc1ccc(N2CCCN(c3ccnc4sc(C(N)=O)c(N)c34)CC2)cc1)C([2H])([2H])[2H] [15w_D6, 3-amino-4-(4-(4-(2-(bis(methyl-d3)amino)-2-oxoethyl)phenyl)-1,4-diazepan-1-yl)thieno[2,3-b]pyridine-2-carboxamide]
IC50 (CDK8/19; [10]): 3.8 nM

Compound: CN1CCN(C(=O)c2ccc3cc(CCNc4ncnc5ccc(C#N)cc45)ccc3c2)CC1 [Senexin B, reference compound]
IC50 [2]: 255 nM | mouse survival of the metastatic disease [6]: statistically significant but moderate increase in survival | MYC-CAP-CR cell growth (MYC-CAP-CR cells [7]): little effect

IC50 (MV4-11 cells): 83 nM
Compound: NC(=O)c1sc2nccc(N3CCCN(c4ccc(C(=O)NCCCO)cc4)CC3)c2c1N [compound 6263]
IC50 (CDK8/19; [10]): 169 nM

AUC(0-t) (in vivo; 25 mg/kg): 470 ng·h/mL | IC50 (MV4-11 cells): 31 nM
Compound: CN(CCCO)C(=O)c1ccc(N2CCCN(c3ccnc4sc(C(N)=O)c(N)c34)CC2)cc1 [compound 6264, 3-amino-4-(4-(4-((3-hydroxypropyl)(methyl)carbamoyl)phenyl)-1,4-diazepan-1-yl)thieno[2,3-b]pyridine-2-carboxamide]
IC50 (CDK8/19; [10]): 37 nM

IC50 (MV4-11 cells): 42 nM
Compound: CN1CCN(C(=O)c2ccc(N3CCCN(c4ccnc5sc(C(N)=O)c(N)c45)CC3)cc2)CC1 [compound 6268]
IC50 (CDK8/19; [10]): 31 nM

IC50 (MV4-11 cells): 683 nM
Compound: CN(C)C(=O)c1ccc(CN2CCCN(c3ccnc4sc(C(N)=O)c(N)c34)CC2)cc1 [compound 6269]
IC50 (CDK8/19; [10]): 1000 nM

IC50 (MV4-11 cells): 79 nM
Compound: NC(=O)c1sc2nccc(N3CCCN(c4ccc(C(=O)N5CCNCC5)cc4)CC3)c2c1N [compound 6271]
IC50 (CDK8/19; [10]): 233 nM

Compound: CN(C)C(=O)c1ccc(N2CCCN(c3ccnc4[nH]c(C(N)=O)cc34)CC2)cc1 [compound 6284]
IC50 (CDK8/19; [10]): > 1000 nM

Compound: CN(CCCNC(=O)OC(C)(C)C)C(=O)c1ccc(N2CCCN(c3ccnc4sc(C(N)=O)c(N)c34)CC2)cc1 [compound 6292]
IC50 (CDK8/19; [10]): 594 nM

Compound: CN(CCCN)C(=O)c1ccc(N2CCCN(c3ccnc4sc(C(N)=O)c(N)c34)CC2)cc1 [compound 6293]
IC50 (CDK8/19; [10]): 50 nM

Compound: CN(C)C(=O)c1ccc(N2CCCN(c3ccnc4sc(C(N)=O)cc34)CC2)cc1 [compound 6296]
IC50 (CDK8/19; [10]): > 1000 nM

Compound: CN(C)C(=O)c1ccc(N2CCCN(c3ccnc4sc(C#N)c(N)c34)CC2)cc1 [compound 6298]
IC50 (CDK8/19; [10]): 379 nM

AUC(0-t) (in vivo; 30 mg/kg): 210 ng·h/mL
Compound: CN1CCN(Cc2ccc(N3CCCN(c4ccnc5sc(C(N)=O)c(N)c45)CC3)cc2)CC1 [compound 6300, 3-amino-4-(4-(4-((4-methylpiperazin-1-yl)methyl)phenyl)-1,4-diazepan-1-yl)thieno[2,3-b]pyridine-2-carboxamide]
IC50 (CDK8/19; [10]): 4.9 nM

AUC(0-t) (in vivo; 16 mg/kg): 2200 ng·h/mL
Compound: Cc1cc(N2CCCN(c3ccc(C(=O)N(C)C)cc3)CC2)c2c(N)c(C(N)=O)sc2n1 [compound 6304, 3-amino-4-(4-(4-(dimethylcarbamoyl)phenyl)-1,4-diazepan-1-yl)-6-methylthieno[2,3-b]pyridine-2-carboxamide]
IC50 (CDK8/19; [10]): 13.6 nM

Compound: CN(C)C(=O)c1ccc(N2CCCN(c3ccnc4[nH]c(C(N)=O)c(N)c34)CC2)cc1 [compound 6307]
IC50 (CDK8/19; [10]): > 1000 nM

Compound: CN(C)C(=O)c1ccc(N2CCCN(c3ccnc4oc(C(N)=O)c(N)c34)CC2)cc1 [compound 6318]
IC50 (CDK8/19; [10]): > 1000 nM

Compound: CNC(=O)c1ccc(N2C(=S)N(c3ccc(C#N)c(C(F)(F)F)c3)C(=O)C2(C)C)cc1F [enzalutamide]
MYC-CAP-CR cell growth (MYC-CAP-CR cells [7]): paradoxically stimulated the growth | MYC-CaP-CR colony formation (MYC-CAP-CR cells [8]): decreased MYC-CaP-CR colony formation | tumor volume and weight (MYC-CaP-CR tumors): modest effect
